Laboratory results reported in ChEMBL document CHEMBL1154072, “An efficient steroid pharmacophore-based strategy to identify new aromatase inhibitors” (Eur J Med Chem, 2009).

Experiments:
Aromatase [1] = target: T1, Aromatase (Homo sapiens, UniProt P11511); experiment: Inhibition of human placental aromatase assessed as conversion of [1-beta-3H]androstenedione to [1beta-3H]estrone after 20 mins by liquid scintillation counting
T1 sequence (P11511 whole entry): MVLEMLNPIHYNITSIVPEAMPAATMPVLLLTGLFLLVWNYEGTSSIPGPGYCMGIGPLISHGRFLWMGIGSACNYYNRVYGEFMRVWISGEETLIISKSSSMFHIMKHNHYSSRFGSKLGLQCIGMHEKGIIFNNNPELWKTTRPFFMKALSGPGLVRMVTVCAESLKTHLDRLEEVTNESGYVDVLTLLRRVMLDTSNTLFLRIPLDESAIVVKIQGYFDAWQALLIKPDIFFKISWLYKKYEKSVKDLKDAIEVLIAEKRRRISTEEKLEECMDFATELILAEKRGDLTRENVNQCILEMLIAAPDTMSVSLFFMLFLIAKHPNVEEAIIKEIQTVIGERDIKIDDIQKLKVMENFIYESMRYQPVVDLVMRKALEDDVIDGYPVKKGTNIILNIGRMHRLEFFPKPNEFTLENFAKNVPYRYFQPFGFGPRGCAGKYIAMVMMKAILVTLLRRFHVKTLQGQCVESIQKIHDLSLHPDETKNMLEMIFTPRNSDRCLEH

Aromatase [2] = target: T1, Aromatase; experiment: Inactivation of human placental aromatase assessed as residual activity at 7.5 uM after 12 mins in presence of 0.5 mM L-cysteine; settings: 0.2 h
Aromatase [3] = target: T1, Aromatase; experiment: Competitive inhibition of human placental aromatase by Lineweaver-Burke plot analysis
Aromatase [4] = target: T1, Aromatase; experiment: Inhibition of human placental aromatase assessed as conversion of [1-beta-3H]androstenedione to […] at 100 uM after 20 mins by liquid scintillation counting; settings: for inhibition (INH): 100 µM
Aromatase [5] = target: T1, Aromatase; experiment: Inhibition of human placental aromatase assessed as conversion of [1-beta-3H]androstenedione to […] at 30 uM after 20 mins by liquid scintillation counting

SMILES	IC50 (Aromatase [1])	also measured
CC1C(O)CC23COC(=O)C2=CCCC3C1(C)CCC1=CC(=O)OC1 (centres undefined)	126000 nM	–
CC/C(=C1\C=CC(=O)S1)C(CC)c1ccc(OC(C)=O)cc1 (centres undefined)	15500 nM	–
Cc1nc2c(cc1C#N)C(Nc1ccc(Cl)cc1)Oc1ccc([N+](=O)[O-])cc1-2 (centres undefined)	678 nM	Activity (Aromatase [2]): Active; Ki (Aromatase [3]): 385 nM
CCn1cc(C(=O)O)c(=O)c2ccc(-c3c[nH]nc3C)nc21	–	inhibition (INH) (Aromatase [4]): Not Active
CCCCSC(=O)[C@@]1(C)CC[C@H]2[C@@H](CC=C3C[C@@H](OC(C)=O)CC[C@@]32C)[C@@H]1CC#N	–	inhibition at 30 µM (Aromatase [5]): 21%
C=C1C(=O)O[C@H]2C[C@@H](C)[C@@H]3CC(=O)OC[C@@]3(C)C[C@H]12	–	inhibition (INH) (Aromatase [4]): Not Active
CC1C2=CC(=O)CCC2(C)C2CCC3(C)C(=O)CCC3C12 (centres undefined)	274 nM	Ki (Aromatase [3]): 266 nM
C[C@]12CCC(=O)C(O)=C1CC[C@@H]1[C@@H]2CC[C@]2(C)C(=O)CC[C@@H]12 [FORMESTANE]	92 nM	–
C[C@H]1C2=CC(=O)CCC(C)(O2)[C@H]2CC[C@]3(C)C(=O)CC[C@H]3[C@H]12 (some centres undefined)	9800 nM	–
CCCC(=O)Oc1cc(OC(=O)CCC)c2c(C)cc(=O)oc2c1	176000 nM	–
CCOC(=O)C1=C(C)C2C=C(c3cccs3)CC(c3ccc(Cl)cc3)=C2OC1=O (centres undefined)	–	inhibition at 100 µM (Aromatase [4]): 26%
